In publication PMC6694155, “PTPσ inhibitors promote hematopoietic stem cell regeneration” (Nature Communications, 2019):
Several values for one entry are separate records, joined by “and”; a condition that tells them apart may be missing. Equal entries are not always repeated.

Legend:
[1] = system: BM KSL cells / BM lin− cells; assay: Gene expression of cell cycle regulatory genes (qPCR); type: cell-based, mouse
Protocol: Rac1 CDS-targeting- and Bcl2l1 CDS-targeting shRNA in lentiviral plasmid (TRCN0000310888 and TRCN0000004685) and control shRNA (SHC216V) were purchased from Sigma Aldrich. For viral production, 293T cells were transfected with lentiviral gag/pol and VSV-G (courtesy of Donald Kohn, UCLA) and the lentiviral plasmids, at a ratio of 2.2: 1.2: 3.3 (in [μg], gag/pol:VSVG:Plasmid) using Lipofectamine 3000 and P300 Enhancer. Viral particles were collected after 24 h and 48 h. One milliliter of viral supernatant was used to infect 0.75 × 10^6 BM lin^− cells. Infected cells were collected the next day and irradiated with 300 cGy followed by treatment with or without 1 μg/mL DJ001, prior to CFC assay.
For all studies, RNA was isolated using the Qiagen RNeasy micro kit (Qiagen). RNA was reverse transcribed using the High-Capacity cDNA Reverse Transcription Kit (ThermoFisher Scientific) and was then used for quantitative PCR with SYBR Select Master Mix (Life Technologies). Values were normalized to housekeeping gene Gapdh/GAPDH and given as ΔΔCt values normalized to media-treated, non-irradiated BM KSL cells (2(−ΔΔC(T)) method)[67].

BM KSL cells = assay: Cytokine analysis in vitro (BM KSL cell culture supernatants); type: cell-based, mouse; parameters: PTN: unit not given beside the values; IL-5 / IL-6 / IL-9 / IL-10 / IL-12(p40) / IL-12(p70) / IL-13 / IL-17 / IP-10 / CXCL12 / EGF / DKK / G-CSF / Eotaxin / GM-CSF / KC / MCP-1 / MIP-1a / M-CSF / MIP-2 / MIG / RANTES / VEGF / TNF-a / IFN-g / IL-1a / IL-1b / IL-2 / IL-4 / IL-3: unit not given here; details: for IFN-g / IL-1a / IL-1b / IL-2 / IL-3 / IL-4 / IL-5 / IL-6 / IL-9 / IL-10 / IL-12(p40) / IL-12(p70) / IL-13 / IL-17 / IP-10: Supplementary Figure 6a; for CXCL12 / DKK / EGF / Eotaxin / G-CSF / GM-CSF / KC / M-CSF / MCP-1 / MIG / MIP-1a / MIP-2 / PTN / RANTES / TNF-a / VEGF: Supplementary Figure 6b
Protocol: For in vitro cytokine measurements, 3.5 × 10^4 BM KSL cells were irradiated with 300 cGy and cultured in TSF media with and without 1 μg/mL DJ001. Non-irradiated KSL cells were cultured in TSF media with and without 1 μg/mL DJ001. At 12 h of culture, culture supernatants were collected for analysis. For in vivo cytokine measurements, adult C57BL/6 mice were irradiated with 750 cGy TBI and then treated with 5 mg/kg of DJ001 or vehicle, subcutaneously, from day + 1 to day + 5. Non-irradiated mice received the identical regimen of 5 mg/kg DJ001 or vehicle for 5 days. Mice were killed and BM cells were collected into IMDM. Cells were pelleted and the BM supernatant was collected and sent to the UCLA Immune Assessment Core for cytokine analysis. All samples were tested on a mouse 32-plex Cytokine/Chemokine panel platform from EMD Milipore using Luminex’s xMAP® immunoassay technology (Luminex, Inc.). In addition, the following cytokine levels were assessed by solid-phase ELISA assay according to the manufacturer’s description: CXCL12 (R&D Systems), SCF (R&D Systems), Thrombopoietin (TPO) (R&D Systems), PTN (Biomatik), DKK1 (R&D Systems), and EGF (R&D Systems).

human BM CD34+ cells = assay: Recovery of CD34+CD38− cells from 300 cGy-irradiated human BM CD34+ cells; type: cell-based; details: 36 h, 5 µg/mL DJ001
[2] = biological target: T1, CD45 (Protein Tyrosine Phosphatase, receptor type C) (Homo sapiens, UniProt P08575); assay: PhosphataseProfiler screen: CD45; type: biochemical; details: replicates
T1 construct: purchased Eurofins Pharma Discovery Services UK
Protocol: Compound DJ001 was evaluated in a PhosphataseProfiler™ screen at 10 μM and 1 μM (2.7 μg/mL and 0.27 μg/mL) concentrations at Eurofins Pharma Discovery Services UK (Study number UK022-0004033) against a panel of 21 Phosphatases. In each experiment, the respective reference antagonist/agonist was tested directly with DJ001 and the data were compared with historical values determined at Eurofins. DJ001 compound inhibition was calculated as percentage inhibition of the enzymatic activity compared with control.

[3] = KSL cells, 36 h following 300 cGy, normalized to Gapdh and media

T1 sequence (P08575 26-1306, species assumed): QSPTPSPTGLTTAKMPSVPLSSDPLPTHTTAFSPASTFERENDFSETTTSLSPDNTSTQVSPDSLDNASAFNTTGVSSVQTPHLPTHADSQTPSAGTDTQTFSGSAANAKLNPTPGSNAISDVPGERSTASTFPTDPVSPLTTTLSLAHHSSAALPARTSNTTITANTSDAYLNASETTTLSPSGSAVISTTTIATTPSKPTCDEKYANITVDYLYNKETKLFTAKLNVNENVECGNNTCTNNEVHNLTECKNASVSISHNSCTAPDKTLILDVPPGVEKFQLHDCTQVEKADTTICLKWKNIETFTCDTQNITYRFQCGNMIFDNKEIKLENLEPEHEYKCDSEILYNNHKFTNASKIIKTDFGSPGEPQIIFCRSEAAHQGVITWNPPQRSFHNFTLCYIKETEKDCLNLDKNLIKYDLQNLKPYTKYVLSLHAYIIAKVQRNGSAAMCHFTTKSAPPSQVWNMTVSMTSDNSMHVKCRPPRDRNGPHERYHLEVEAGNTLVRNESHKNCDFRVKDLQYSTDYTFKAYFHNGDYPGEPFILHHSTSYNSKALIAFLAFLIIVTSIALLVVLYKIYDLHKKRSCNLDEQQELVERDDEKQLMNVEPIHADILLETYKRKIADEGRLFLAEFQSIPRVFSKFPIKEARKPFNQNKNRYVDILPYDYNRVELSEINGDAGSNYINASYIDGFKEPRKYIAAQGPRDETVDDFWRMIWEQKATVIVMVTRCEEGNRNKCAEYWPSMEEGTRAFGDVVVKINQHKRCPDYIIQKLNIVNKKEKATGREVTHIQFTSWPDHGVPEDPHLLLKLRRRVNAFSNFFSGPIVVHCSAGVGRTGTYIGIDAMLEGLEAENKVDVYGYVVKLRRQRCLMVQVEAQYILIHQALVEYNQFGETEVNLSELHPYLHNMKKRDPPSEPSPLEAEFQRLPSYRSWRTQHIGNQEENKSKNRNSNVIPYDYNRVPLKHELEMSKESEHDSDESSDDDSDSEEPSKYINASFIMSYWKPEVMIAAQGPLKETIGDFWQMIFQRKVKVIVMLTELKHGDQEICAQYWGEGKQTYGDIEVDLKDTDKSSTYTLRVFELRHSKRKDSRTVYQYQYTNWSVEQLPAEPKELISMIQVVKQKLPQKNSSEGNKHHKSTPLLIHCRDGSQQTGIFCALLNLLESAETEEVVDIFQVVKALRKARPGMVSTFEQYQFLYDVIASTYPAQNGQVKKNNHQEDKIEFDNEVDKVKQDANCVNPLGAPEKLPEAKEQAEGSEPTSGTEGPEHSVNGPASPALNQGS

In the case of `O=C(/C=C\Nc1cccc([N+](=O)[O-])c1)c1ccccc1` [DJ001, (Z)-3-((3-nitrophenyl)amino)-1-phenylprop-2-en-1-one], the “DJ001-mediated transcription of Cdk2 and Cyclin E with Rac1-shRNA” value ([1]; BM KSL cells transduced with Rac1-shRNA) was “blocked DJ001-mediated transcription of Cdk2 and Cyclin E”, the “Fold changes (2^−ΔΔCt) of Cyclin E expression (Figure 4c right panel)” value ([1]; BM lin− cells, 48 h after 300 cGy, shCtrl) was 1.96 and 1.7 and 1.9 and the “Fold changes (2^−ΔΔCt) of Cdk2 expression (Figure 4c left panel)” value ([1]; BM lin− cells, 48 h after 300 cGy, shRac1) was 0.56 and 0.39 and 0.71 and 0.44. The “Fold changes (2^−ΔΔCt) of Cdk2 expression” value [1, 3] was 1.9 and 2.08 and 1.8, the “Fold changes (2^−ΔΔCt) of Cdk4 expression” value [1, 3] was 1.32 and 1.05 and 1 and the “Fold changes (2^−ΔΔCt) of Cdk6 expression” value [1, 3] was 1.09 and 0.91 and 0.98. For the same compound, the “Fold changes (2^−ΔΔCt) of Cdkn1A expression” value [1, 3] was 1.43 and 1.41 and 1.14, the “Fold changes (2^−ΔΔCt) of Cdkn1B expression” value [1, 3] was 1.11 and 1.07 and 0.74 and the “Fold changes (2^−ΔΔCt) of Cyclin D1 expression” value [1, 3] was 1.54 and 1.21 and 0.97. For the same compound, the “Fold changes (2^−ΔΔCt) of Cyclin D2 expression” value [1, 3] was 1.04 and 1.14 and 0.74, the “Fold changes (2^−ΔΔCt) of Cyclin E expression” value [1, 3] was 2.54 and 2.89 and 2.07 and the “expression of Cdk4, Cdk6, Cdkn1a, Cdkn1b, Cyclin D1, Cyclin D2” value ([1]; irradiated BM KSL cells) was “did not alter the expression”. The “expression of Cdk2 and Cyclin E” value ([1]; irradiated KSL cells) was “significantly increased the expression”, the IFN-g (BM KSL cells; 300cGy) was 0.77 and the IL-1a (BM KSL cells; 300cGy) was 2.07 and 2.11. The IL-1b (BM KSL cells; 300cGy) was 1.39, the IL-2 (BM KSL cells; 300cGy) was 2.9 and the IL-3 (BM KSL cells; 300cGy) was 1. For the same compound, the IL-4 (BM KSL cells; 300cGy) was 0.44, the IL-5 (BM KSL cells; 300cGy) was 2.67 and the IL-6 (BM KSL cells; 300cGy) was 0.77 and 1.04. The IL-9 (BM KSL cells; 300cGy) was 36.91, the IL-10 (BM KSL cells; 300cGy) was 2.29 and the “IL-12(p40)” value (BM KSL cells; 300cGy) was 1.77 and 1.44 and 2.31. The “IL-12(p70)” value (BM KSL cells; 300cGy) was 3.42, the IL-13 (BM KSL cells; 300cGy) was 9.36 and the IL-17 (BM KSL cells; 300cGy) was 1.92. For the same compound, the IP-10 (BM KSL cells; 300cGy) was 2.77, the CXCL12 (BM KSL cells; 300cGy) was 0 and the DKK (BM KSL cells; 300cGy) was 0. For the same compound, the EGF (BM KSL cells; 300cGy) was 0, the Eotaxin (BM KSL cells; 300cGy) was 2.69 and the G-CSF (BM KSL cells; 300cGy) was 0.01. For the same compound, the GM-CSF (BM KSL cells; 300cGy) was 5.03, the KC (BM KSL cells; 300cGy) was 1.04 and the M-CSF (BM KSL cells; 300cGy) was 1.85 and 2.24. The MCP-1 (BM KSL cells; 300cGy) was 4.52, the MIG (BM KSL cells; 300cGy) was 3.11 and the MIP-1a (BM KSL cells; 300cGy) was 5.42 and 8.81. The MIP-2 (BM KSL cells; 300cGy) was 16, the PTN (BM KSL cells; 300cGy) was 10.6601 and 9.687 and 10.9496 and the RANTES (BM KSL cells; 300cGy) was 3.97. The TNF-a (BM KSL cells; 300cGy) was 4.73, the VEGF (BM KSL cells; 300cGy) was 1.18 and the “LIX levels following irradiation” value (BM KSL cells; BM KSL cells, 12 h after 300 cGy, 1 μg/mL DJ001) was “decreased LIX levels”. For the same compound, the “other cytokines in vitro” value (BM KSL cells; BM KSL cells, 12 h culture, 1 μg/mL DJ001) was “no effects on any other cytokines”, the IFN-g (BM KSL cells; NI (non-irradiated)) was 0.77 and the IL-1a (BM KSL cells; NI (non-irradiated)) was 2.07. The IL-1b (BM KSL cells; NI (non-irradiated)) was 1.39, the IL-2 (BM KSL cells; NI (non-irradiated)) was 2.9 and the IL-3 (BM KSL cells; NI (non-irradiated)) was 1. For the same compound, the IL-4 (BM KSL cells; NI (non-irradiated)) was 0.44, the IL-5 (BM KSL cells; NI (non-irradiated)) was 2.67 and the IL-6 (BM KSL cells; NI (non-irradiated)) was 0.77 and 1.04. The IL-9 (BM KSL cells; NI (non-irradiated)) was 36.91, the IL-10 (BM KSL cells; NI (non-irradiated)) was 2.29 and the “IL-12(p40)” value (BM KSL cells; NI (non-irradiated)) was 1.13 and 2.12 and 1.6. For the same compound, the “IL-12(p70)” value (BM KSL cells; NI (non-irradiated)) was 3.42, the IL-13 (BM KSL cells; NI (non-irradiated)) was 9.36 and the IL-17 (BM KSL cells; NI (non-irradiated)) was 1.92. The IP-10 (BM KSL cells; NI (non-irradiated)) was 2.77, the CXCL12 (BM KSL cells; NI (non-irradiated)) was 0 and the DKK (BM KSL cells; NI (non-irradiated)) was 0. It also gave an EGF (BM KSL cells; NI (non-irradiated)) of 0, an Eotaxin (BM KSL cells; NI (non-irradiated)) of 2.69 and a G-CSF (BM KSL cells; NI (non-irradiated)) of 0.01. The GM-CSF (BM KSL cells; NI (non-irradiated)) was 5.03, the KC (BM KSL cells; NI (non-irradiated)) was 1.04 and the M-CSF (BM KSL cells; NI (non-irradiated)) was 1.85 and 2.71. For the same compound, the MCP-1 (BM KSL cells; NI (non-irradiated)) was 4.52, the MIG (BM KSL cells; NI (non-irradiated)) was 3.11 and the MIP-1a (BM KSL cells; NI (non-irradiated)) was 5.42 and 8.81. The MIP-2 (BM KSL cells; NI (non-irradiated)) was 16, the PTN (BM KSL cells; NI (non-irradiated)) was 11.0625 and 10.3876 and 11.8896 and the RANTES (BM KSL cells; NI (non-irradiated)) was 3.97. For the same compound, the TNF-a (BM KSL cells; NI (non-irradiated)) was 4.73, the VEGF (BM KSL cells; NI (non-irradiated)) was 1.18 and the “recovery of viable human BM CD34+CD38− cells following irradiation” value (human BM CD34+ cells) was “increased the recovery”. The “Supplementary Figure 1: CD45 activity” value ([2]; 0.27 μg/mL DJ001) was 91 and 86 and 84 and the “Supplementary Figure 1: CD45 activity” value ([2]; 2.7 μg/mL DJ001) was 71 and 85 and 86.
